Test results from ChEMBL document CHEMBL1201862, “PubChem BioAssay data set” (2004).
Calls of active or inactive are those of the source.

Tests used:
[1] = target: Induced myeloid leukemia cell differentiation protein Mcl-1 (Homo sapiens, UniProt Q07820); format: functional
[2] = blockers of HIV-1 ZM109 envelope-driven cell-cell fusion – HeLa effector, CEM target cells, luciferase, cherry-pick, dose response (AID 652058); format: functional, cell-based;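 further: luciferase signal from HIV-1 Env mediated cell-cell fusion of effector and target cells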
[3] = off-target signal loss in HeLa-CEM21 co-culture – HeLa F-luc CTL cells, cherry-picked, counter-screen for HIV-1 Env fusion inhibitor project, dose response (AID 652040); format: functional, cell-based;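 further: potency for signal decrease marking cytotoxic or nonspecific inhibition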
[4] = blockers of HIV-1 envelope-mediated cell-cell fusion – cherry-pick, dose response (AID 652057); format: functional, cell-based
[5] = HIV-1 AD8 envelope cell-cell fusion blockers – cherry-pick, dose response (AID 652062); format: functional, cell-based;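 further: luciferase signal from cell-cell fusion driven by HIV-1 clade B AD8 Env; potency is for inhibitors of fusion seen as a drop in luminescence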
[6] = target: T1, Mannose-6-phosphate isomerase (Homo sapiens, UniProt P34949); assay: MPI inhibition at elevated mannose 6-phosphate – biochemical, fluorescence intensity, high mannose 6-phosphate, primary screen (AID 1220)
T1 sequence (P34949 whole entry): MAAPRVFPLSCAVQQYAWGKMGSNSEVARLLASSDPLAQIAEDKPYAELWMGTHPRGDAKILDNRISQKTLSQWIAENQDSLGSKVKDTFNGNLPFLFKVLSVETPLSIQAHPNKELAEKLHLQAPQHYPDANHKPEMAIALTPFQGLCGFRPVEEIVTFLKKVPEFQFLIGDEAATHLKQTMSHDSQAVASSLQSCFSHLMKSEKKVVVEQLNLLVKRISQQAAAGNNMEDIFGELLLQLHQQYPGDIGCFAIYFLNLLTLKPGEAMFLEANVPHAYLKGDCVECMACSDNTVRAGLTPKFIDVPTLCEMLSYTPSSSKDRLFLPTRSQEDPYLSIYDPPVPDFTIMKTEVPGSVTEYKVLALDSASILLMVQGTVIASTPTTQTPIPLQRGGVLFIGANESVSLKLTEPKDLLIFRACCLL

Cytochrome P450 1A2 = target: T2, Cytochrome P450 1A2 (Homo sapiens, UniProt P05177);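 further: PubChem cytochrome P450 panel assay, CYP1A2 panel member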
T2 sequence (P05177 whole entry): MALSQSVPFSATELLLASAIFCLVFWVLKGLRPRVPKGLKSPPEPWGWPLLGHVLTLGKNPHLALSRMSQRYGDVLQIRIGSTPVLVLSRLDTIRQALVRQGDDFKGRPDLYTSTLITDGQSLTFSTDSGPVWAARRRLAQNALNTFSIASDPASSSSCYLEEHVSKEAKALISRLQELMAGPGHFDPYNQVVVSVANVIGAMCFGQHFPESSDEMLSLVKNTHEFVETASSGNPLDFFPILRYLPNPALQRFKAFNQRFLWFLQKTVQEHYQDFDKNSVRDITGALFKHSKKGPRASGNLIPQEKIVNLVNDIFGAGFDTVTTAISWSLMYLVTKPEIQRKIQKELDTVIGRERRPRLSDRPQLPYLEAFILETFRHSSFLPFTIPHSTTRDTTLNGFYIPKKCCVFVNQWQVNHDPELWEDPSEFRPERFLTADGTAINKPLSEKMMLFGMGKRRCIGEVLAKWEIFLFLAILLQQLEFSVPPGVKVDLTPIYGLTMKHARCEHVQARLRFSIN

Large T antigen = Large T antigen (Simian virus 40, UniProt P03070); format: functional, Betapolyomavirus macacae;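 further: Confirmatory-stage PubChem screen for compounds that inhibit SV40 T antigen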
Sequence of Large T antigen (P03070 whole entry): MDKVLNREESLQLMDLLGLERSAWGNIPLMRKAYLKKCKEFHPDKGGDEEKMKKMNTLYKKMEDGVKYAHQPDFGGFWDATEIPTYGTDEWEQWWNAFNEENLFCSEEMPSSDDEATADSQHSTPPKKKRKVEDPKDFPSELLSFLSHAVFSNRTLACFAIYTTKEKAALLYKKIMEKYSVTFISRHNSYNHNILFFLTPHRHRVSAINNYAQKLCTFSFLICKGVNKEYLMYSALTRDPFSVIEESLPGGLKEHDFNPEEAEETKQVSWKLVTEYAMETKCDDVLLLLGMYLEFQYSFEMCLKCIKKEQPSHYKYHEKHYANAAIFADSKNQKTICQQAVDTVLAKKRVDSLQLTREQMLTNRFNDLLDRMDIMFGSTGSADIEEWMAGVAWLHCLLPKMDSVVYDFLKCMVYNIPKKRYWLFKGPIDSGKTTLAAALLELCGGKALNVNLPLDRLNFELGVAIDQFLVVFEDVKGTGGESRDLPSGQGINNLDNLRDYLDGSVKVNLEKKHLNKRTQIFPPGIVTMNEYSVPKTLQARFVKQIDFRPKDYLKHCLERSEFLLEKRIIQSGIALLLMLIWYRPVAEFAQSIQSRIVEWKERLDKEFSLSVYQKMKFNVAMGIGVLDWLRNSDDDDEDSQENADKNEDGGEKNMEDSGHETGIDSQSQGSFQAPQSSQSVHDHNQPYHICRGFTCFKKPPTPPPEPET

Genome polyprotein = Genome polyprotein (dengue virus type 2, UniProt P29990); assay: flavivirus cap methylation enzyme inhibition – biochemical, confirmation dose response, primary screen (AID 588689); format: functional
Sequence of Genome polyprotein (P29990 2492-3391 limits assumed): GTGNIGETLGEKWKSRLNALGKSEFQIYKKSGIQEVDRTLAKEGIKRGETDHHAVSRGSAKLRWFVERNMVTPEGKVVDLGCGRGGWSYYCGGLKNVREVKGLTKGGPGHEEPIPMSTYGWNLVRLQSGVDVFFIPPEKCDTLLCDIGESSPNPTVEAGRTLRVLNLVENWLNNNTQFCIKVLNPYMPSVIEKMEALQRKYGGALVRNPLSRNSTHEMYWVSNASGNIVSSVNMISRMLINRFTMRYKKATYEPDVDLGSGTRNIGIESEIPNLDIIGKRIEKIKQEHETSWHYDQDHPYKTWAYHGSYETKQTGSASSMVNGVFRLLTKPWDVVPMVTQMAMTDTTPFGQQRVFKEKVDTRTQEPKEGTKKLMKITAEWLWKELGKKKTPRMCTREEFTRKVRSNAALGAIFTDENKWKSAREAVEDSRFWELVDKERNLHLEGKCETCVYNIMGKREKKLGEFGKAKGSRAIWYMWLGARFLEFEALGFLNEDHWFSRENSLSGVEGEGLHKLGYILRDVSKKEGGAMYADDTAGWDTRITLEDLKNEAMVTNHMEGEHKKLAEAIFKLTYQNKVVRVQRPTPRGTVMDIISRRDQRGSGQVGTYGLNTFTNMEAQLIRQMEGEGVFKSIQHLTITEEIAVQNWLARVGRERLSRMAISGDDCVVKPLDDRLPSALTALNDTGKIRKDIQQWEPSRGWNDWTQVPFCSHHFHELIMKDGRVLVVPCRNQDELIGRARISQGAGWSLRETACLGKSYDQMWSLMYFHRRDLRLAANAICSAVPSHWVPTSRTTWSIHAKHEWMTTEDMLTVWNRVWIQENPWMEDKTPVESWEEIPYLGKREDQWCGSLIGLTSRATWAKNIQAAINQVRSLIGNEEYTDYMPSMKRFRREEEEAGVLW

[7] = target: T3, Heat shock factor protein 1 (Mus musculus, UniProt P38532); assay: enhancement of HSF1-driven luciferase signal – cell-based, NIH3T3, luminescence, dose retest, confirmation (AID 435004); format: functional;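 further: stress induced by proteasome inhibitor MG132 added 30 min after compound; luciferase reporter driven by HSF1 response element in NIH3T3 cells; actives raise luminescence as potentiators of the MG132 stress response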
T3 sequence (P38532 whole entry): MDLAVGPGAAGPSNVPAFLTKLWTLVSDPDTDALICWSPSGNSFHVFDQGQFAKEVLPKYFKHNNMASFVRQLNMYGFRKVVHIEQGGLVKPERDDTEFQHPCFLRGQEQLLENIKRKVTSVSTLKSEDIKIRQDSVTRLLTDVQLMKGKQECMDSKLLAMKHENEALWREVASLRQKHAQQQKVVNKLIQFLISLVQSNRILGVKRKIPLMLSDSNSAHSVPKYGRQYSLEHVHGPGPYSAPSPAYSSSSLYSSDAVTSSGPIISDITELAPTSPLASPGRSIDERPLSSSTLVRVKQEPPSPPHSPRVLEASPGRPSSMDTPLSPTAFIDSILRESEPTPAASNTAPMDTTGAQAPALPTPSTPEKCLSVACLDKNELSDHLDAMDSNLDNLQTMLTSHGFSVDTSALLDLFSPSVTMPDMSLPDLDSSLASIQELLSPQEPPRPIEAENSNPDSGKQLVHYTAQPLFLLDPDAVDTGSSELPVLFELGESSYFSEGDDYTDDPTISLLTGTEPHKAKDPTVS

[8] = reduction of Shn3 3'UTR-driven luciferase in osteoblasts – cell-based, Clone20 osteoblasts, firefly luciferase, cherry-picked, dose response (AID 624132); format: functional;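 further: firefly luciferase luminescence from reporter carrying the Shn3 3'UTR in osteoblasts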
[9] = non-specific 3'UTR reporter inhibition in Clone20-Shn3RL – cell-based, Renilla luciferase, cherry-picked, counter-screen for Shn3 inhibitor project, dose response (AID 624133); format: functional
Fatty acid synthase [10] = target: T4, Fatty acid synthase (Homo sapiens, UniProt P49327); assay: inhibition of human FAS-TE enzyme activity – biochemical, kinetic fluorescence intensity, dose response (AID 624326); format: functional;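 further: rate of fluorescence rise from hydrolysis of a fluorogenic O-methyl fluorescein ester substrate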
T4 sequence (P49327 whole entry): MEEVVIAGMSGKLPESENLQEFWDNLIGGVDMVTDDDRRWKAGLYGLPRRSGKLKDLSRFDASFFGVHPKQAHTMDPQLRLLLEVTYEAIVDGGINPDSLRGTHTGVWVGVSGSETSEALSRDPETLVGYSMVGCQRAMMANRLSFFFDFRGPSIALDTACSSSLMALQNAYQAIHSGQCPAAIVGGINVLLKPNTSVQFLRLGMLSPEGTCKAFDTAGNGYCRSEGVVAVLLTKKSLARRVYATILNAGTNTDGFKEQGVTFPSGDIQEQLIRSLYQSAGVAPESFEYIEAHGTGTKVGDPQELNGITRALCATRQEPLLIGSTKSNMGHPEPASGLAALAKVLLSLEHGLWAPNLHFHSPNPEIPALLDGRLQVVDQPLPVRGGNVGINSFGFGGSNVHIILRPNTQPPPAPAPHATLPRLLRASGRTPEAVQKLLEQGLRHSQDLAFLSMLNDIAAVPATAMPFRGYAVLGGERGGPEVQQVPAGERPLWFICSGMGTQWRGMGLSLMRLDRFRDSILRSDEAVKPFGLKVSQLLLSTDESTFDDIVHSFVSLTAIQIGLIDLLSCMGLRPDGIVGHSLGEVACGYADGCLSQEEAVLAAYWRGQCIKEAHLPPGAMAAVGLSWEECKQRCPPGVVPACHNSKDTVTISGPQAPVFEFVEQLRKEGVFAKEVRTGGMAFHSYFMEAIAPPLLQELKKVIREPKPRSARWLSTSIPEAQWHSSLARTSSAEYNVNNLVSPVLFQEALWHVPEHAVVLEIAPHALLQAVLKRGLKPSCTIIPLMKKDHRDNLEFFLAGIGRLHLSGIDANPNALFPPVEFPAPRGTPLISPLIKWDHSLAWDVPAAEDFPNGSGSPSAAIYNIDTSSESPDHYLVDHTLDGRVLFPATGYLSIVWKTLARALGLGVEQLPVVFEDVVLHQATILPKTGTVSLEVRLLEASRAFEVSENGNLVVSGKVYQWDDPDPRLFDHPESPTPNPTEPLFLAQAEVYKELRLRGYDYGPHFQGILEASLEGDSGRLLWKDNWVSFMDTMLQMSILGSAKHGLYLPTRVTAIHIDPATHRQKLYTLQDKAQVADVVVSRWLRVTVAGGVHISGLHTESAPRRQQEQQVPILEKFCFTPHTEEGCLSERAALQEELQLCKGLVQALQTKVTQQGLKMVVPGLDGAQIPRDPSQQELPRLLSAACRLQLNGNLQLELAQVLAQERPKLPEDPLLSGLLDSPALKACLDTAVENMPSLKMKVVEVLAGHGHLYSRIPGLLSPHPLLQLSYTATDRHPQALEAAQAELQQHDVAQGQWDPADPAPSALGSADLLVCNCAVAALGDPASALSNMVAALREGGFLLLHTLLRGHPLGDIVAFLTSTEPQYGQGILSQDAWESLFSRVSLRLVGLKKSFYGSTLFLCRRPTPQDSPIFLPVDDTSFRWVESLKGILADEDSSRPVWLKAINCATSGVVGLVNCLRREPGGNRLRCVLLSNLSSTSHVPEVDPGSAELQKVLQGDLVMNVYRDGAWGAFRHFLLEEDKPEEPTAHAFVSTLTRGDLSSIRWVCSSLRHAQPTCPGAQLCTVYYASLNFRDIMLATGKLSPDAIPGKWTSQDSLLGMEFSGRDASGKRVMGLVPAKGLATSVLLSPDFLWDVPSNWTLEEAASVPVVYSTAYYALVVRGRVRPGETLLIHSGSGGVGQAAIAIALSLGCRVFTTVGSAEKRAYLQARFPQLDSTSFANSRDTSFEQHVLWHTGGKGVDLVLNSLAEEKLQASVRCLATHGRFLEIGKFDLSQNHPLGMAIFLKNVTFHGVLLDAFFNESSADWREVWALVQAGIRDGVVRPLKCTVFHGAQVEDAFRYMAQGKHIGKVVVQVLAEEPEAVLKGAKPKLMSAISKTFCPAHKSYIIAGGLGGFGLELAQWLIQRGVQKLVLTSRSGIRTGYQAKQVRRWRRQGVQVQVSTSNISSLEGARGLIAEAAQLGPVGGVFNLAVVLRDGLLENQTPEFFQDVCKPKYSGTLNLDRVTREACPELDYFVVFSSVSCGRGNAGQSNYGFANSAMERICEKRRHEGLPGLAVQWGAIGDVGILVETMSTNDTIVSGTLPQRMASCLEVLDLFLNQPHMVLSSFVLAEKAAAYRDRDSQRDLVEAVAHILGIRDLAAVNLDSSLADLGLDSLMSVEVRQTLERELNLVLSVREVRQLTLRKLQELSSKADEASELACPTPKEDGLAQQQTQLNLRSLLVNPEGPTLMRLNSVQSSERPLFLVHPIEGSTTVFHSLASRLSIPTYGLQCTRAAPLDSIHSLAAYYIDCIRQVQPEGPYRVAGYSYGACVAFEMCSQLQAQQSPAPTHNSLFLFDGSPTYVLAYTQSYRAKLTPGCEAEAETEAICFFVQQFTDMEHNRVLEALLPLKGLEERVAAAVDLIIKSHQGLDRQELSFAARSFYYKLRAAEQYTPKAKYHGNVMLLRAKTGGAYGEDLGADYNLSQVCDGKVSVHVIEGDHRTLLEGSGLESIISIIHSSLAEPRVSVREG

[11] = target: T5, Corticotropin-releasing factor receptor 2/Corticotropin-releasing factor-binding protein (Homo sapiens, UniProt P24387+Q13324); assay: Dose Response confirmation of uHTS hits for small molecule antagonists of the CRF-binding protein and CRF-R2 receptor complex.; format: functional; settings: read-out: IC50_Mean
T5 sequence (Q13324 whole entry): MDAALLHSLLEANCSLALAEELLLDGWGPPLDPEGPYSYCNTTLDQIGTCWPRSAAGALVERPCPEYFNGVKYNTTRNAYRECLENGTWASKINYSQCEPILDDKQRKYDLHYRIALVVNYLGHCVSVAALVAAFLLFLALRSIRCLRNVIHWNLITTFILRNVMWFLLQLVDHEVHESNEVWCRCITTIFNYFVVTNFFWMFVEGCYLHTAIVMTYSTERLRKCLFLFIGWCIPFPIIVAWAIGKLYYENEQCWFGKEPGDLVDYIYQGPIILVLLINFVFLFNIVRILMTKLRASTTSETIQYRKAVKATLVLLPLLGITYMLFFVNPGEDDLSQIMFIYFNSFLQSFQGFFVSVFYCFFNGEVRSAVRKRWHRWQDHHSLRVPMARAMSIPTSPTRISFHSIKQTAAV
T5 sequence (P24387 whole entry): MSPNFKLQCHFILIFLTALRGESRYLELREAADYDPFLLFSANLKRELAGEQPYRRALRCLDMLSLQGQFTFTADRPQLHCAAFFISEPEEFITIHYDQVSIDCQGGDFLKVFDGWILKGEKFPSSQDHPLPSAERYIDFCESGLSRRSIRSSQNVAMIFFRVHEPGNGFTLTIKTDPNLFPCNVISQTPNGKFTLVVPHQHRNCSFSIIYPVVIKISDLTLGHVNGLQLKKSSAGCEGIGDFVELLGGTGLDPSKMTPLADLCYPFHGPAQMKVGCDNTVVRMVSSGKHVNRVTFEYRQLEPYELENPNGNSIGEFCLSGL

Fatty acid synthase [12] = target: T4, Fatty acid synthase; assay: inhibition of human FAS-TE enzyme activity – biochemical, endpoint fluorescence intensity, uHTS hits, dose response (AID 624327); format: functional;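 further: fluorescence from hydrolysis of an O-methyl fluorescein acyl ester substrate by the enzyme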
[13] = target: T5, Corticotropin-releasing factor receptor 2/Corticotropin-releasing factor-binding protein; assay: activators of CRF receptor 2 with binding protein – uHTS hits, confirmation (AID 602473); format: functional; settings: read-out: EC50_Mean
[14] = P. falciparum Dd2 growth inhibitors, dose response, SYBR Green, cherry-picked samples (AID 1159567); format: functional, cell-based
[15] = Luminescence Cell-Based Dose Confirmation HTS to Identify Activators of 5'UTR Stem-Loop Driven Alpha-Synuclein mRNA Translation in H4 Neuroglioblastoma Cells. [Related pubchem assays: 1829 (Project Summary), 1814 (Primary HTS)]; format: functional
[16] = Luminescence Cell-Based Dose Response HTS to Identify Activators of Luciferase Translation or Activity in H4 […] Cells. [Related pubchem assays: 1829 (Project Summary), 1814 (Primary HTS)]; format: functional
H4 = assay: Luminescence Cell-Based Dose Response HTS to Identify Activators of 5'UTR Stem-Loop Driven Prion Protein mRNA Translation in H4 Neuroglioblastoma Cells. [Related pubchem assays: 1829 (Project Summary), 1814 (Primary HTS)]; format: functional; settings: Homo sapiens
[17] = general cell-killing toxicity readout – plate reader, dry powder samples, cytotoxicity control for PAX8 inhibitor project, dose response (AID 743021); format: functional, cell-based
Paired box protein Pax-8 = Paired box protein Pax-8 (Homo sapiens, UniProt Q06710); assay: PAX8 transcriptional activity inhibition in RMG-I – RMG-I cells, luciferase, cherry-pick, dose response (AID 687027); format: functional, cell-based;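 further: luciferase reporter driven by Pax8 target thyroperoxidase promoter measured by SteadyGlo luminescence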
Sequence of Paired box protein Pax-8 (Q06710 whole entry): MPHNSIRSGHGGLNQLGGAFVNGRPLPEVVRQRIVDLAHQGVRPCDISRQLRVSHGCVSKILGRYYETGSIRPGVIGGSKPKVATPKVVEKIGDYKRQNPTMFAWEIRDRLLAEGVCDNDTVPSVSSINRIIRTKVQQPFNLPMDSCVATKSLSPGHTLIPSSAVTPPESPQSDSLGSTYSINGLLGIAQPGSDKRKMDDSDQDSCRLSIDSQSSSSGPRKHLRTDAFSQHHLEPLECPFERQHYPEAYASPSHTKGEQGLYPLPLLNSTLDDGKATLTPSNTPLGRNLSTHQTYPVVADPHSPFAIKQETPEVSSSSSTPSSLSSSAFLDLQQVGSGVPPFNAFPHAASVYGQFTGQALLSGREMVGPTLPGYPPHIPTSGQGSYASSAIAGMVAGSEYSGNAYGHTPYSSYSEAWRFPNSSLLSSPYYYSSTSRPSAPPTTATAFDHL

[18] = OVCAR8 cell viability loss – plate reader, dry powder samples, PAX8 project, dose response (AID 743197); format: functional, cell-based; settings: OVCAR-8
Leucine aminopeptidase = target: T6, Leucine aminopeptidase (Plasmodium falciparum 3D7, UniProt Q8IL11); assay: P. falciparum M17LAP inhibitors, primary screen, biochemical, fluorogenic H-Leu-NHMec substrate, 1536-well (AID 1619); format: functional
T6 sequence (Q8IL11 whole entry): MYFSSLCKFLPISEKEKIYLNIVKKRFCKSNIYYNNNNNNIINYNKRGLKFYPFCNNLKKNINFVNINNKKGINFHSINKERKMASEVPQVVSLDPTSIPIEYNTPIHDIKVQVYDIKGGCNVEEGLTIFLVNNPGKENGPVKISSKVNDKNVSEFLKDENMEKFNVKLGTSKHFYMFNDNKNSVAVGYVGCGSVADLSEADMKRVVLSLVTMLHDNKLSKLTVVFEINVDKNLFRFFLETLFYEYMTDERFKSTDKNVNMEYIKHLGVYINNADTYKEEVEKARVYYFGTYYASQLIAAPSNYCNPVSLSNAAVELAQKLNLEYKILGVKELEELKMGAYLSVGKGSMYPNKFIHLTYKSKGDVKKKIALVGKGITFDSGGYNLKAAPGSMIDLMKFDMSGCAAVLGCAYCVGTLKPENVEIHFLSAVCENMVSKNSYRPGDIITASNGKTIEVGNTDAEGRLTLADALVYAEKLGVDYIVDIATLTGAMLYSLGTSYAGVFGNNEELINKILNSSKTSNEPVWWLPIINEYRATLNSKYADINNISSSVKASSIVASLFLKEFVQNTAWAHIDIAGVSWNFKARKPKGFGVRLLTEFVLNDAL

Sequence of Induced myeloid leukemia cell differentiation protein Mcl-1 (Q07820 whole entry, the tested form may be a part): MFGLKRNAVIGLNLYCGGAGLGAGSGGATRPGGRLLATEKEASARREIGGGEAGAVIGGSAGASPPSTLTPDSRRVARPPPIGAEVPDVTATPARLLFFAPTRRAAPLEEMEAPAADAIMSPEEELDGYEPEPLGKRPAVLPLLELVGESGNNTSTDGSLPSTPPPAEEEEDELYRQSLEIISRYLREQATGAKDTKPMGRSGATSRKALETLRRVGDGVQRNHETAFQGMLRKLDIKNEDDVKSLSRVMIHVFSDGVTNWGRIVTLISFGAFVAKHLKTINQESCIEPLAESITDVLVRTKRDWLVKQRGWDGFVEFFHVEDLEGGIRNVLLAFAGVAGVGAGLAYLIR

COc1cccc(C(=O)Nc2cc(Cl)c(O)c(Cl)c2)c1
IC50 [1]: 3.46 µM (not active)

COC(=O)C1(C(=O)OC)C[C@H](c2ccc(OC)cc2)N(Cc2ccccc2OC)[C@@H]1c1ccccc1
AC50 [2]: 1.58 µM (active) | AC50 [3]: 2.48 µM (active) | AC50 [4]: 1.37 µM (active) | AC50 [5]: 8.22 µM (active)

CN(CCO)c1nc(N)c2c(N)nc3c(c2c1C#N)CC(=O)N3C1CCCC1
IC50 [6]: > 50 µM (not active) | AC50 (Cytochrome P450 1A2): 2.82 µM (inconclusive)

O=C(CS(=O)(=O)c1ccccc1)c1cc2cc(F)ccc2oc1=O
IC50 (Large T antigen): 62.8 µM (active) | IC50 (Genome polyprotein): > 100 µM (active) | EC50 [7]: > 260 µM (inactive)

CCCCCCN1C[C@H](n2cc(-c3ccc(F)cc3)nn2)[C@@H](O)C[C@@H]1c1ccc(Cl)cc1
AC50 [8]: 10.3 µM (active) | AC50 [9]: 25.8 µM (active)

CCCC12CN(C(=O)c3ccc([N+](=O)[O-])cc3)CC(C)(CN(C(=O)c3ccc([N+](=O)[O-])cc3)C1)C2=O
IC50 (Fatty acid synthase [10]): 12.9 µM (active) | IC50 [11]: > 47.1 µM (inactive) | IC50 (Fatty acid synthase [12]): 9.85 µM (active) | EC50 [13]: > 53 µM (inactive)

CCCNC(=O)N1CCC2(CC1)CN(Cc1ccc(F)cc1)[C@@H](CO)c1[nH]c3cc(OC)ccc3c12
AC50 [14]: 5.11 µM (active)

Cc1cc(=O)oc2c3c(cc(OCC(=O)Nc4ccc(CCO)cc4)c12)OC(C)(C)CC3
AC50 [8]: > 70 µM (inactive) | AC50 [9]: > 70 µM (inactive)

COc1ccc(CN2CC3(CN(C(=O)Cc4ccccc4)C3)c3c([nH]c4cc(OC)ccc34)[C@H]2CO)cc1
AC50 [14]: 6.52 µM (active)

COc1ccc(OC)c(S(=O)(=O)ON2C(=O)c3ccccc3C2=O)c1
IC50 (Fatty acid synthase [10]): 3.19 µM (active) | IC50 (Fatty acid synthase [12]): 3.72 µM (active) | EC50 [15]: > 120 µM (not active) | EC50 [16]: > 120 µM (not active) | EC50 (H4): > 120 µM (not active)

COc1cccc(/C=C2\Oc3cc(OCC(=O)N4Cc5ccccc5C[C@H]4C(=O)O)ccc3C2=O)c1
IC50 (Genome polyprotein): 43.4 µM (active)

CCCNC(=O)Nc1ccc2c(c1)OC[C@@H](C)N(Cc1ccc(-c3ccccn3)cc1)C[C@@H](C)[C@H](OC)CN(C)C2=O
AC50 [17]: 41.7 µM (active) | AC50 (Paired box protein Pax-8): 30.1 µM (active)

Cc1nc2nc(-c3cccs3)cn2nc1C
IC50 (Genome polyprotein): 17.6 µM (active)

C[C@@H]1CCCCO[C@@H](CN(C)Cc2ccccc2)[C@H](C)CN([C@H](C)CO)C(=O)c2cc(NC(=O)Nc3ccc(C(F)(F)F)cc3)ccc2O1
AC50 [18]: > 70 µM (inactive) | AC50 (Paired box protein Pax-8): 4.61 µM (active)

CCOc1cc2c(C#N)c(N3CCCCC3)nc(N)c2c(N)n1
IC50 [6]: > 50 µM (not active)

CC1(Cc2ccc(Cl)cc2)C(=O)Nc2ccc(S(=O)(=O)NC3CCCCC3)cc21 (centres undefined)
AC50 [2]: 1.12 µM (active) | AC50 [3]: 1.04 µM (active) | AC50 [4]: 0.396 µM (active) | AC50 [5]: 0.674 µM (active)

COCCN1C(=O)Cc2c1nc(N)c1c(N)nc(N3CCN(c4ccc(F)cc4)CC3)c(C#N)c21
IC50 [6]: > 50 µM (not active)

CCOC(=O)c1c(-c2ccc(C)c(C)c2)csc1NC(=O)C1CC=CCC1C(=O)O (centres undefined)
IC50 (Leucine aminopeptidase): 10.3 µM (active) | IC50 (Genome polyprotein): 43.5 µM (active)
